According to ChEMBL document CHEMBL1201862, “PubChem BioAssay data set” (2004):
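Where inhibition never reached the appropriate level, the endpoint shown equals the highest concentration tested. Otherwise, values were interpolated linearly from a five-concentration, 48-hour dose response in 96-well plates. Abbreviation: GI50, concentration required for 50% inhibition of growth.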 Active and inactive are the calls of the source. No stated cut-off is given here; in the data, active = GI50 up to about 1.1 µM and inactive = higher. Where a SMILES comes first, the peptide text is derived from it. The star is where a group is joined. Boc = CC(C)(C)OC(=O)*

Tests used:
Experiment in all cases: NCI-60 cell line screen, 48 h
MDA-N = test system: MDA-N
SNB-19 = test system: SNB-19
LOX IMVI = test system: LOX IMVI
UACC-62 = test system: UACC-62
OVCAR-5 = test system: OVCAR-5
HCT-15 = test system: HCT-15
RPMI-8226 = test system: RPMI-8226
SF-295 = test system: SF-295
HCT-116 = test system: HCT-116
UO-31 = test system: UO-31
CAKI-1 = test system: CAKI-1
MCF7 = test system: MCF7
K562 = test system: K562
SK-OV-3 = test system: SK-OV-3
SR = test system: SR
PC-3 = test system: PC-3
A549 = test system: A549
NCI-H23 = test system: NCI-H23
HOP-92 = test system: HOP-92
OVCAR-8 = test system: OVCAR-8
NCI-H226 = test system: NCI-H226
IGROV-1 = test system: IGROV-1
DU-145 = test system: DU-145
HCC 2998 = test system: HCC 2998
SK-MEL-5 = test system: SK-MEL-5
COLO 205 = test system: COLO 205
MDA-MB-231 = test system: MDA-MB-231
SK-MEL-28 = test system: SK-MEL-28
A498 = test system: A498
M14 = test system: M14
EKVX = test system: EKVX
NCI-H460 = test system: NCI-H460
SK-MEL-2 = test system: SK-MEL-2
SF-539 = test system: SF-539
OVCAR-3 = test system: OVCAR-3
RXF 393 = test system: RXF 393
MOLT-4 = test system: MOLT-4
OVCAR-4 = test system: OVCAR-4
SN12C = test system: SN12C
T47D = test system: T47D
ACHN = test system: ACHN
BT-549 = test system: BT-549
786-0 = test system: 786-0
U-251 = test system: U-251
MDA-MB-435 = test system: MDA-MB-435
HL-60 = test system: HL-60
NCI/ADR-RES = test system: NCI/ADR-RES
CCRF-CEM = test system: CCRF-CEM
HT-29 = test system: HT-29
NCI-H522 = test system: NCI-H522
Malme-3M = test system: Malme-3M
SW-620 = test system: SW-620
UACC-257 = test system: UACC-257
KM12 = test system: KM12
HOP-62 = test system: HOP-62
TK-10 = test system: TK-10
SNB-75 = test system: SNB-75
SF-268 = test system: SF-268
Hs-578T = test system: Hs-578T

Measured: GI50

N#CC1C(=O)N(c2ccccc2)NC12OC(=O)c1ccncc12 (centres undefined)
> 20 µM: HCT-15
inactive: MDA-N > 20 µM | SNB-19 > 20 µM | LOX IMVI > 20 µM | UACC-62 > 20 µM | OVCAR-5 > 20 µM | RPMI-8226 > 20 µM | SF-295 > 20 µM | HCT-116 > 20 µM | UO-31 > 20 µM | CAKI-1 > 20 µM | MCF7 > 20 µM | K562 > 20 µM | SK-OV-3 > 20 µM | SR > 20 µM | PC-3 > 20 µM | A549 > 20 µM | NCI-H23 > 20 µM | HOP-92 > 20 µM | OVCAR-8 > 20 µM | NCI-H226 > 20 µM | IGROV-1 > 20 µM | DU-145 > 20 µM | HCC 2998 > 20 µM | SK-MEL-5 > 20 µM | COLO 205 > 20 µM | MDA-MB-231 > 20 µM | SK-MEL-28 > 20 µM | A498 > 20 µM | M14 > 20 µM | EKVX > 20 µM | NCI-H460 > 20 µM | SK-MEL-2 > 20 µM | SF-539 > 20 µM | OVCAR-3 > 20 µM | RXF 393 > 20 µM | MOLT-4 > 20 µM | OVCAR-4 > 20 µM | SN12C > 20 µM | T47D > 20 µM | ACHN > 20 µM | BT-549 > 20 µM | 786-0 > 20 µM | U-251 > 20 µM | MDA-MB-435 > 20 µM | HL-60 > 20 µM | NCI/ADR-RES > 20 µM | CCRF-CEM > 20 µM | HT-29 > 20 µM | NCI-H522 > 20 µM | Malme-3M > 20 µM | SW-620 > 20 µM | UACC-257 > 20 µM

CN1CN(c2ccccc2)C2(CCN(CCc3csc4ccccc34)CC2)C1=O
10.7 µM: HCT-15
inactive: SNB-19 20.2 µM | LOX IMVI 13.7 µM | UACC-62 19.9 µM | OVCAR-5 11.9 µM | RPMI-8226 6.84 µM | HCT-116 11.3 µM | UO-31 1.8 µM | CAKI-1 11.2 µM | MCF7 13.3 µM | K562 14.8 µM | SK-OV-3 25.9 µM | SR 11.7 µM | PC-3 12 µM | A549 24.2 µM | KM12 12.6 µM | HOP-62 12.2 µM | NCI-H23 17.4 µM | TK-10 14 µM | OVCAR-8 21.4 µM | NCI-H226 17.4 µM | IGROV-1 21.7 µM | DU-145 18.7 µM | HCC 2998 7.21 µM | SK-MEL-5 17.5 µM | COLO 205 14.3 µM | MDA-MB-231 > 10 µM | SK-MEL-28 15.7 µM | M14 16.7 µM | EKVX 12.8 µM | SF-539 11 µM | OVCAR-3 12.1 µM | RXF 393 12.6 µM | MOLT-4 10.3 µM | SN12C 15.6 µM | T47D 18.3 µM | ACHN > 10 µM | BT-549 4.71 µM | 786-0 14.5 µM | U-251 14.5 µM | MDA-MB-435 14.4 µM | HL-60 9.38 µM | NCI/ADR-RES 13.8 µM | CCRF-CEM 12.3 µM | HT-29 4.04 µM | NCI-H522 15.9 µM | SNB-75 17.3 µM | Malme-3M 15 µM | SF-268 28.8 µM | SW-620 16.9 µM | UACC-257 14.4 µM

CC1(C)C2CCC3CC(CCC#N)CCC3C21C#N (centres undefined)
> 100 µM: HCT-15
inactive: MDA-N > 100 µM | SNB-19 > 100 µM | LOX IMVI > 100 µM | UACC-62 > 100 µM | OVCAR-5 > 100 µM | RPMI-8226 > 100 µM | SF-295 > 100 µM | HCT-116 > 100 µM | UO-31 > 100 µM | CAKI-1 > 100 µM | MCF7 > 100 µM | K562 > 100 µM | SK-OV-3 > 100 µM | SR > 100 µM | PC-3 > 100 µM | A549 > 100 µM | KM12 18 µM | HOP-62 > 100 µM | NCI-H23 > 100 µM | HOP-92 > 100 µM | TK-10 > 100 µM | OVCAR-8 > 100 µM | NCI-H226 > 100 µM | IGROV-1 > 100 µM | DU-145 > 100 µM | HCC 2998 > 100 µM | SK-MEL-5 > 100 µM | COLO 205 > 100 µM | Hs-578T > 100 µM | MDA-MB-231 > 100 µM | SK-MEL-28 > 100 µM | A498 > 100 µM | M14 > 100 µM | EKVX > 100 µM | NCI-H460 > 100 µM | SK-MEL-2 > 100 µM | SF-539 > 100 µM | OVCAR-3 > 100 µM | RXF 393 > 100 µM | MOLT-4 > 100 µM | OVCAR-4 > 100 µM | SN12C > 100 µM | T47D > 100 µM | ACHN > 100 µM | 786-0 > 100 µM | U-251 > 100 µM | MDA-MB-435 > 100 µM | HL-60 > 100 µM | NCI/ADR-RES > 100 µM | CCRF-CEM > 100 µM | HT-29 > 100 µM | NCI-H522 > 100 µM | Malme-3M > 100 µM | SF-268 > 100 µM | SW-620 > 100 µM | UACC-257 > 100 µM

C(CCCCc1nnc(N2CCOCC2)o1)CCCc1nnc(N2CCOCC2)o1
> 100 µM: HCT-15
inactive: MDA-N > 100 µM | SNB-19 > 100 µM | LOX IMVI > 100 µM | OVCAR-5 > 100 µM | SF-295 > 100 µM | HCT-116 > 100 µM | UO-31 > 100 µM | CAKI-1 > 100 µM | MCF7 > 100 µM | K562 > 100 µM | SK-OV-3 > 100 µM | PC-3 > 100 µM | A549 > 100 µM | KM12 > 100 µM | HOP-62 > 100 µM | NCI-H23 > 100 µM | HOP-92 > 100 µM | TK-10 > 100 µM | OVCAR-8 > 100 µM | NCI-H226 > 100 µM | IGROV-1 > 100 µM | DU-145 > 100 µM | SK-MEL-5 > 100 µM | COLO 205 > 100 µM | MDA-MB-231 > 100 µM | SK-MEL-28 > 100 µM | A498 > 100 µM | M14 > 100 µM | EKVX > 100 µM | NCI-H460 > 100 µM | SK-MEL-2 > 100 µM | SF-539 > 100 µM | OVCAR-3 > 100 µM | RXF 393 > 100 µM | MOLT-4 > 100 µM | OVCAR-4 > 100 µM | SN12C > 100 µM | ACHN > 100 µM | BT-549 > 100 µM | 786-0 > 100 µM | U-251 > 100 µM | MDA-MB-435 > 100 µM | HL-60 > 100 µM | NCI/ADR-RES > 100 µM | CCRF-CEM > 100 µM | HT-29 > 100 µM | SNB-75 > 100 µM | SW-620 > 100 µM | UACC-257 > 100 µM

COC(=O)C(Cc1c[nH]c2ccccc12)NC(=O)C(Cc1c[nH]c2ccccc12)NC(=O)C(Cc1c[nH]c2ccccc12)NC(=O)C(Cc1c[nH]c2ccccc12)NC(=O)C(Cc1c[nH]c2ccccc12)NC(=O)C(Cc1c[nH]c2ccccc12)NC(=O)C(Cc1c[nH]c2ccccc12)NC(=O)OC(C)(C)C (centres undefined) (Boc-WWWWWWW-OMe; configuration not given here)
> 100 µM: HCT-15
inactive: MDA-N 63.7 µM | SNB-19 47.8 µM | LOX IMVI 84.9 µM | UACC-62 51.5 µM | OVCAR-5 42.4 µM | RPMI-8226 46.7 µM | HCT-116 33.3 µM | UO-31 44.9 µM | CAKI-1 > 100 µM | MCF7 59.4 µM | K562 64.1 µM | SR 48 µM | PC-3 > 100 µM | A549 31.9 µM | HOP-62 > 100 µM | NCI-H23 64.1 µM | TK-10 43.6 µM | OVCAR-8 > 100 µM | NCI-H226 40.9 µM | IGROV-1 > 100 µM | DU-145 64 µM | HCC 2998 > 100 µM | SK-MEL-5 20.9 µM | MDA-MB-231 > 100 µM | SK-MEL-28 35.6 µM | M14 21.7 µM | NCI-H460 > 100 µM | SK-MEL-2 17.1 µM | OVCAR-3 > 100 µM | MOLT-4 40.6 µM | OVCAR-4 > 100 µM | SN12C 62.2 µM | T47D > 100 µM | ACHN > 100 µM | BT-549 > 100 µM | 786-0 26.3 µM | U-251 37.4 µM | MDA-MB-435 > 100 µM | HL-60 41.7 µM | CCRF-CEM 92.7 µM | HT-29 > 100 µM | NCI-H522 54.6 µM | SNB-75 17.3 µM | Malme-3M 34.5 µM | SF-268 > 100 µM | SW-620 > 100 µM | UACC-257 67.5 µM
